Experimental data as given in patent US20120122212A1, “TGF-BETA PATHWAY INHIBITORS FOR ENHANCEMENT OF CELLULAR REPROGRAMMING OF HUMAN CELLS” (priority 2009, published 2012).
Like-named read-outs stand apart in the source and are kept apart here.

Key:
Sox2 = Sox2 gene expression (Taqman, normalized to GAPDH) in neonatal human dermal fibroblasts; assay type: cell-based; details: for increase in Sox2 expression compared to cells that receive no drug treatment: daily feeding
Experimental: (§1) Neonatal human dermal fibroblasts (fibroblast cell line NHDF-3955-Neo from Lonza) are cultured under standard cell culture conditions using hFib media (DMEM, 20% Earl's 199 media, 10% FBS, Glutamax, beta-mercaptoethanol (bME)). Approximately 12,000 cells per well are plated on a 12-well plate. 24 hrs after plating, cells are daily fed with media containing 4, 10, 20, 50 or 100 μM GPI-1046 (ACC Corporation) or 1% DMSO. After 6 days, cells are collected and RNA is extracted using a Qiagen RNeasy kit. Gene expression is analyzed using specific Taqman primer-probe sets for Sox2, Oct4, and GAPDH on an ABI 7900HT. Gene expression of cells previously infected with retroviruses encoding Sox2, Oct4, Klf4, and c-Myc (“KSOM”) is also analyzed and is used for positive control purposes. The expression of Sox2 and Oct4 is normalized to the expression of housekeeping gene GAPDH. […] As also indicated in FIG. 1, cells that are treated with 50 μM or 100 μM GPI-1046 express about 5.2-fold and 5.7-fold, respectively, increases in Oct4 when compared to cells that receive no agent treatment and approximately a 3.5- and 3.8-fold increase, respectively, in relative expression of Oct4 when compared to cells that are treated with DMSO.
Neonatal human dermal fibroblasts (fibroblast cell line NHDF-3955-Neo from Lonza) are cultured under standard cell culture conditions using hFib media (DMEM, 20% Earl's 199 media, 10% FBS, Glutamax, beta-mercaptoethanol (bME)). Approximately 12,000 cells per well are plated on a 12-well plate. 24 hrs after plating, cells are daily fed with media containing 2, 5, 25 or 50 μM 616 453 (Calbiochem) or 1% DMSO. After 6 days, cells are collected and RNA is extracted using a Qiagen RNeasy kit. Gene expression is analyzed using specific Taqman primer-probe sets for Sox2 and GAPDH on an ABI 7900HT. Gene expression of cells previously infected with retroviruses encoding Sox2, Oct4, Klf4, and c-Myc (“KSOM”) is also analyzed and is used for positive control purposes. The expression of Sox2 is normalized to the expression of housekeeping gene GAPDH.
(§2) Neonatal human dermal fibroblasts (fibroblast cell line NHDF-3955-Neo from Lonza) are cultured under standard cell culture conditions using hFib media (DMEM, 20% Earl's 199 media, 10% FBS, Glutamax, beta-mercaptoethanol (bME)). Approximately 6,000 cells per well are plated on a 24-well plate. 48 hrs after plating, cells are daily fed with media containing 1 or 100 μM GPI-1046 with or without 0.5 μM Decitabine. On day 7 of treatment, cells are collected and RNA is extracted using a Qiagen RNeasy kit. Gene expression is analyzed using specific Taqman primer-probe sets for Sox2, Oct4 and GAPDH on an ABI 7900HT. The expression of Sox2 and Oct4 is normalized to the expression of housekeeping gene GAPDH.
as §2, with “LY 364947 (Tocris); for 50 μM 616 453 (Calbiochem); 1” for “GPI-1046 with”, “100 μM of A-83-01 (Tocris) or 1 or 100 μM SB 431542 (Tocris). Each treatment was performed in the presence or absence of” for “without”, “using” for “using a”, “Sox2” for “Sox2, Oct4”, “Sox2” for “Sox2 and Oct4”, “GAPDH. […] The morphology of the cells after treatment is depicted in FIG. 5.” for “GAPDH.”
Neonatal human dermal fibroblasts (fibroblast cell line NHDF-3955-Neo from Lonza) are cultured under standard cell culture conditions using hES medium, as described herein. Cells are treated with 0 μM, 2 μM, 10 μM, 50 μM, or 100 μM GPI-1046. […]

p21 = p21 gene expression (Taqman, normalized to GAPDH) in neonatal human dermal fibroblasts; assay type: cell-based; details: after 6 days
Experimental: (§3) Neonatal human dermal fibroblasts (fibroblast cell line NHDF-3955-Neo from Lonza) are cultured under standard cell culture conditions using hFib media (DMEM, 20% Earl's 199 media, 10% FBS, Glutamax, beta-mercaptoethanol (bME)). Approximately 12,000 cells per well are plated on a 12-well plate. 24 hrs after plating, cells are daily fed with media containing 4, 10 or 20 μM DIM (Sigma) or 1% DMSO. After 6 days, cells are collected and RNA is extracted using a Qiagen RNeasy kit. Gene expression is analyzed using specific Taqman primer-probe sets for Klf4, p21 and GAPDH on an ABI 7900HT. Gene expression of cells previously infected with retroviruses encoding Sox2, Oct4, Klf4, and c-Myc (“KSOM”) is also analyzed and is used for positive control purposes. The expression of Klf4 and p21 is normalized to the expression of housekeeping gene GAPDH.

Klf4 = Klf4 gene expression (Taqman, normalized to GAPDH) in neonatal human dermal fibroblasts; assay type: cell-based; details: after 6 days
Experimental: as §3

Oct4 = Oct4 gene expression (Taqman, normalized to GAPDH) in neonatal human dermal fibroblasts; assay type: cell-based; details: for increase in Oct4 compared to cells that receive no agent treatment / increase in relative expression of Oct4 compared to cells treated with DMSO: after 6 days, hFib media
Experimental: as §1, §2
Neonatal human dermal fibroblasts (fibroblast cell line NHDF-3955-Neo from Lonza) are cultured under standard cell culture conditions using hES medium, as described herein. Cells are treated with 0 μM, 2 μM, 10 μM, 50 μM, or 100 μM GPI-1046. On day 5 or day 8 after treatment, cells are collected and RNA is extracted using a Qiagen RNeasy kit. Gene expression is analyzed using specific Taqman primer-probe sets for Sox2, Oct4 and GAPDH on an ABI 7900HT. Gene expression of cells previously infected with retroviruses encoding Sox2, Oct4, Klf4, and c-Myc (“KSOM”) is also analyzed and is used for positive control purposes. The expression of Sox2 and Oct4 is normalized to the expression of housekeeping gene GAPDH. […] The morphology of cells infected with viruses encoding KSOM is depicted in FIG. 8.

human BJ fibroblasts = details: BJ fibroblasts (lack TERT), Day 8, reduced sensitivity compared to BJ-5Tα
Excerpt: In order to determine the effect of TGFβR inhibitor compounds on reprogramming we combined low multiplicity of infection (MOI) of retroviruses for three induction factor (Klf4, Sox2, and Oct ¾ or “KSO”) and four induction factor (Klf4, Sox2, Oct3/4, c-Myc or “KSOM”) reprogramming with various TGFβR inhibitors in human BJ-5Tα fibroblasts or BJ fibroblasts. […] By utilizing a low MOI infection protocol, we increased the sensitivity of the assay to detect the ability of various TGFβR inhibitor compounds to enhance the efficiency of reprogramming by three or four induction factor combinations.
Adherent BJ or BJ-5Tα (TERT-immortalized) fibroblast cells were infected “in bulk” with retroviruses for expression of the three induction factors (also referred to as “reprogramming factors”) KLF4, OCT3/4 and SOX2 (“KSO”), or the cells were infected with retroviruses for expression of KLF4, OCT4, SOX2 and c-MYC (“KSOM”), in each case at a multiplicity of infection (MOI) of 1, and transferred into 96-well plates in a serum-free human embryonic stem cell (hES) medium. […] AP activity was determined quantitatively using a chemiluminescent 1,2-dioxetane-phosphate substrate, which upon dephosphorylation by AP forms a metastable phenolate anion intermediate that decomposes emitting light quantified by a microplate luminometer.

human BJ-5Tα fibroblasts = details: Day 8
Experimental: In the case of compound 616452, cells KSO and KSOM-infected BJ-5Tα fibroblasts were fixed by 4% paraformaldehyde at Day 8, and then incubated with 50 μl 1-Step NBT/BCIP for 20 minutes for AP staining AP staining-positive colonies were counted (see FIGS. 15-16).

mouse fibroblasts = details: cited from earlier work
[1] = 100 μM with 0.5 μM Decitabine, day 7 of treatment
[2] = 100 μM, no Decitabine, day 7 of treatment

Cc1cccc(-c2nc(C(C)(C)C)[nH]c2-c2ccc3c(c2)OCO3)n1 [616 453]
relative Sox2 expression (Sox2; 1 μM, day 7 of treatment): an increase in relative Sox2 expression
relative Sox2 expression (Sox2; 50 μM plus 0.5 μM Decitabine, day 7 of treatment): an increase in relative Sox2 expression
Sox2 expression compared to cells that receive no treatment (Sox2; 2, 5, 25 or 50 μM, after 6 days): an increase in Sox2 expression
relative Sox2 expression compared to cells treated with DMSO (Sox2; 2, 5 and 50 μM, after 6 days): an increase in relative Sox2 expression

Cc1cccc(-c2nn(C(=S)Nc3ccccc3)cc2-c2ccnc3ccccc23)n1 [A-83-01]
relative expression of Sox2 compared to control cells (Sox2; 1 or 100 μM, absence of Decitabine, day 7 of treatment): increased relative expression of Sox2
relative Sox2 expression compared to control cells (Sox2; 1 or 100 μM, presence of 0.5 μM Decitabine, day 7 of treatment): a slight increase of relative Sox2 expression

c1ccc2c(Cc3c[nH]c4ccccc34)c[nH]c2c1 [DIM]
increase in p21 expression relative to cells treated with no agent (p21; 4 μM): approximately 2 fold
increase in p21 expression compared to cells treated with no agent (p21; 10 μM): approximately 2 fold
increase in Klf4 expression relative to cells treated with no agent (Klf4; 4 μM): approximately 2 fold
increase in Klf4 expression compared to cells treated with no agent (Klf4; 10 μM): ~3.2 fold

CCC(C)(C)C(=O)C(=O)N1CCCC1C(=O)OCCCc1cccnc1 (centres unmarked) [GPI-1046]
levels of Sox2, Oct3/4 or both versus cells treated with no agent (Sox2; 4 μM, 10 μM, or 20 μM, after 6 days, hFib media): higher levels of Sox2, Oct3/4 or both
increase of relative Sox2 expression compared to cells treated with DMSO (Sox2; 50 μM or 100 μM, after 6 days, hFib media): ~1.6 fold
increase in Sox2 expression compared to cells that receive no drug treatment (Sox2; 50 μM, after 6 days, hFib media): 4.4 fold
Sox2 expression compared to control cells (Sox2; [1]): slightly increased expression
relative Sox2 expression compared to control cells (Sox2; 100 μM, Day 5, hES medium): an increase in relative Sox2 expression
relative Sox2 expression compared to cells that do not receive drug treatment (Sox2; 100 μM, Day 8, hES medium): increases in relative Sox2 and Oct4 expression
increase in Sox2 expression compared to cells that receive no drug treatment (Sox2; 100 μM, after 6 days, hFib media): 4.5 fold
increase in Sox2 expression compared to control cells (Sox2; [2]): ~3.5 fold
increase in Oct4 compared to cells that receive no agent treatment (Oct4; 50 μM): about 5.2 fold
increase in relative expression of Oct4 compared to cells treated with DMSO (Oct4; 50 μM): ~3.5 fold
Oct4 expression compared to control cells (Oct4; [1]): slightly increased expression
relative Oct4 expression compared to cells that do not receive drug treatment (Oct4; 100 μM, Day 8, hES medium): increases in relative Sox2 and Oct4 expression
increase in Oct4 compared to cells that receive no agent treatment (Oct4; 100 μM): ~5.7 fold
increase in relative expression of Oct4 compared to cells treated with DMSO (Oct4; 100 μM): ~3.8 fold
increase in Oct4 expression compared to control cells (Oct4; [2]): ~4.3 fold

NC(=O)c1ccc(-c2nc(-c3ccc4c(c3)OCO4)c(-c3ccccn3)[nH]2)cc1 [SB 431542]
relative Sox2 expression (Sox2; 100 μM plus 0.5 μM Decitabine, day 7 of treatment): an increase in relative Sox2 expression

Cc1cccc(-c2n[nH]cc2-c2ccc3ncccc3n2)n1 [compound 616452]
alkaline phosphatase activity (human BJ fibroblasts; four factor (KSOM) reprogramming): increased alkaline phosphatase activity
alkaline phosphatase activity (human BJ fibroblasts; three factor (KSO) reprogramming): increased alkaline phosphatase activity
increase in number of AP positive colonies (human BJ-5Tα fibroblasts; KSO-infected BJ-5Tα fibroblasts): greater than ten fold
increase in number of AP positive colonies (human BJ-5Tα fibroblasts; KSOM-infected BJ-5Tα fibroblasts): approximately five fold

B1: Wnt3a: Wnt cell signaling molecule (protein, UniProt P56704 19-352, looked up)
Protein Wnt-3a: SYPIWWSLAVGPQYSSLGSQPILCASIPGLVPKQLRFCRNYVEIMPSVAEGIKIGIQECQHQFRGRRWNCTTVHDSLAIFGPVLDKATRESAFVHAIASAGVAFAVTRSCAEGTAAICGCSSRHQGSPGKGWKWGGCSEDIEFGGMVSREFADARENRPDARSAMNRHNNEAGRQAIASHMHLKCKCHGLSGSCEVKTCWWSQPDFRAIGDFLKDKYDSASEMVVEKHRESRGWVETLRPRYTYFKVPTERDLVYYEASPNFCEPNPETGSFGTRDRTCNVSSHGIDGCDLLCCGRGHNARAERRREKCRCVFHWCCYVSCQECTRVYDVHTCK
enhancement of reprogramming efficiency (mouse fibroblasts; mouse fibroblasts in the presence of factors Oct4, Sox2 and Klf4): about 20 fold
enhancement of reprogramming efficiency (mouse fibroblasts; mouse fibroblasts with Oct4, Sox2, Klf4 and c-Myc): 1.2 fold
